Among the data in publication PMC8508980, “Design, Synthesis and Anticancer Profile of New 4-(1H-benzo[d]imidazol-1-yl)pyrimidin-2-amine-Linked Sulfonamide Derivatives with V600EBRAF Inhibitory Effect” (International Journal of Molecular Sciences, 2021) are activity and percent inhibition values, retold here.

Test in all cases: NCI 60 cell line screen
Holding throughout (format): cell-based, human

One assay relates to CAKI-1. The settings on record: Homo sapiens; CAKI-1, Renal Cancer; read-out: Percent growth. In short, it runs like this:
(§1)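 SRB read-out (515 nm) after 48 h drug exposure, 37 °C, RPMI 1640/5% FBS; five-point dilution series, top conc. 10 µM. Percent growth from Tz, control and treated absorbances; GI50 and TGI derived.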

In a further assay the test system is EKVX. The settings on record: Homo sapiens, Non-Small Cell Lung Cancer, read-out: Percent growth. In short, it runs like this: as §1
Another assay relates to HCT-15. The following applies: Homo sapiens; HCT-15, Colon Cancer; read-out: Percent growth. A digest of the protocol:
as §1

A further assay relates to HOP-92. The following applies: for activity at 10 µM: Homo sapiens, HOP-92, Non-Small Cell Lung Cancer, read-out: Percent growth. In short, it runs like this: as §1
A further assay concerns HT29. The following applies: Homo sapiens, HT-29; HT29, Colon Cancer; read-out: Percent growth. In short, it runs like this: as §1
In a further assay the test system is K-562. The settings on record: Homo sapiens, K562; K-562, Leukemia; read-out: Percent growth. A digest of the protocol: as §1
The next assay has as its system KM12. The settings on record: Homo sapiens; KM12, Colon Cancer; read-out: Percent growth. In short, it runs like this: as §1
The next assay relates to MDA-MB-468. The following applies: for activity at 10 µM: Homo sapiens, MDA-MB-468, Breast Cancer, read-out: Percent growth. A digest of the protocol: as §1
The test system of another assay is MOLT-4. The following applies: for activity at 10 µM: Homo sapiens, MOLT-4, Leukemia, read-out: Percent growth. A digest of the protocol: as §1
Another assay deals with NCI-H226. The following applies: for activity at 10 µM: Homo sapiens, NCI-H226, Non-Small Cell Lung Cancer, read-out: Percent growth. A digest of the protocol:
as §1

The next assay has as its system NCI-H23. The settings on record: Homo sapiens; NCI-H23, Non-Small Cell Lung Cancer; read-out: Percent growth. A digest of the protocol: as §1
In another assay the test system is NCI-H460. The settings on record: Homo sapiens; NCI-H460, Non-Small Cell Lung Cancer; read-out: Percent growth. In short, it runs like this:
as §1

The next assay concerns RXF 393. The settings on record: Homo sapiens; RXF 393, Renal Cancer; read-out: Percent growth. A digest of the protocol:
as §1

For a further assay, the system named is SF-295. The settings on record: Homo sapiens; SF-295, CNS-Cancer; read-out: Percent growth. In short, it runs like this: as §1
A further assay has as its system SNB-75. The following applies: Homo sapiens; SNB-75, CNS-Cancer; read-out: Percent growth. In short, it runs like this:
as §1

In the next assay the test system is SR. The following applies: for activity at 10 µM: Homo sapiens, Leukemia, read-out: Percent growth. In short, it runs like this: as §1
For another assay, the system named is T-47D. The settings on record: for activity at 10 µM: Homo sapiens, T47D, Breast Cancer, read-out: Percent growth. A digest of the protocol: as §1
A further assay has as its system U251. The settings on record: Homo sapiens, U-251; U251, CNS-Cancer; read-out: Percent growth. A digest of the protocol: as §1
In the next assay the test system is UO-31. The settings on record: for activity at 10 µM: Homo sapiens, UO-31, Renal Cancer, read-out: Percent growth. In short, it runs like this:
as §1

On to `O=S(=O)(NCCNc1nccc(-n2cnc3ccccc32)n1)c1ccc(Br)cc1` [12d, N-(2-((4-(1H-benzo [d]imidazol-1-yl)pyrimidin-2-yl)amino)ethyl)-4-bromobenzenesulfonamide], for which the activity at 10 µM came to 81.5% with CAKI-1; 83.4% with EKVX; 95.7% with HCT-15; 74.2% in the assay on HOP-92; 97.2% with HT29; 88.4% with K-562. Also, the activity at 10 µM in the assay with KM12 came to 85.4%; in the assay with MDA-MB-468 it was 84%; in the assay on MOLT-4, 95.9%; with NCI-H226, 76.5%; in the assay with NCI-H23 it was 97.3%; in the assay with NCI-H460, 101%. Further, the activity at 10 µM in the assay on RXF 393 turned out to be 101%; in the assay on SF-295 it was 96.5%; with SNB-75, 74.1%; in the assay on SR, 75.1%; with T-47D it was 59.1%; with U251, 98.6%. The activity at 10 µM in the assay with UO-31 came to 79.8%.

Regarding `O=S(=O)(NCCNc1nccc(-n2cnc3ccccc32)n1)c1ccc(F)cc1` [12b, N-(2-((4-(1H-benzo [d]imidazol-1-yl)pyrimidin-2-yl)amino)ethyl)-4-fluorobenzenesulfonamide], the activity at 10 µM with CAKI-1 was found to be 82%; in the assay with EKVX, 85.2%; in the assay on HCT-15, 100%; with HOP-92, 82.3%; with HT29, 94.4%; in the assay on K-562, 84%. Also, the activity at 10 µM came out at 73.4% in the assay with KM12; 71.6% in the assay with MDA-MB-468; 90.5% with MOLT-4; 77.5% in the assay on NCI-H226; 95.8% in the assay with NCI-H23; 96.3% with NCI-H460. Moreover, the activity at 10 µM in the assay with RXF 393 is 106%; with SF-295, 93.6%; in the assay on SNB-75 it was 73.6%; in the assay with SR, 85.8%; in the assay on T-47D, 64.4%; with U251, 99.5%. For the same compound, in the assay with UO-31, the activity at 10 µM was determined as 72.6%.

With `Cc1ccc(S(=O)(=O)NCCNc2nccc(-n3cnc4ccccc43)n2)cc1` [12g, N-(2-((4-(1H-benzo [d]imidazol-1-yl)pyrimidin-2-yl)amino)ethyl)-4-methyl benzenesulfonamide], the activity at 10 µM in the assay on CAKI-1 came out at 57.5%; in the assay on EKVX, 56.1%; with HCT-15, 80.2%; in the assay with HOP-92, 57.9%; with HT29 it was 90.2%; in the assay with K-562, 56.1%. The activity at 10 µM in the assay with KM12 was determined as 77.4%; in the assay on MDA-MB-468, 51%; in the assay with MOLT-4, 55.3%; in the assay with NCI-H226 it was 58.7%; with NCI-H23 it was 74.6%; in the assay with NCI-H460, 79%. The activity at 10 µM was determined as 55.4% in the assay with RXF 393; 75.5% in the assay on SF-295; 69% in the assay with SNB-75; 53.6% with SR; 27.6% with T-47D; 85.2% in the assay with U251. In addition, in the assay with UO-31, the activity at 10 µM stood at 52%. Besides, the percent inhibition result with HOP-92 (HOP-92, NCI-60 heat map analysis) is given as “around 40%”; in the assay with MDA-MB-468 (MDA-MB-468, NCI-60 heat map analysis) it was 49%; with MOLT-4 (MOLT-4, NCI-60 heat map analysis) it was “around 45%”; with NCI-H226 (NCI-H226, NCI-60 heat map analysis), “around 40%”; with SR (NCI-60 heat map analysis), “around 45%”; in the assay on T-47D (NCI-60 heat map analysis), 73%. For the same compound, in the assay on UO-31 (UO-31, NCI-60 heat map analysis), the percent inhibition was found to be 48%.
